These are literature values, as cited in patent US20110312981A1, “PREDICTIVE MARKER FOR EGFR INHIBITOR TREATMENT” (priority 2007, published 2011).

The conditions of series [1]: patients with cancer receiving the 150 mg/day dose.
The test system of series [2] is NSCLC patients for whom standard therapy for advanced disease has failed. As to conditions: single agent, versus placebo, BR.21.
The next series concerns patients with NSCLC. As to conditions: second line after cisplatin-based first-line regimens failed; ECOG 0, 1 or 2; versus best supportive care.
The subject of another series is NSCLC. To be noted: second line therapy of NSCLC.

Take `C#Cc1cccc(Nc2ncnc3cc(OCCOC)c(OCCOC)cc23)c1` [Tarceva, erlotinib]: in series [1], the “drug levels in plasma” value is above 500 ng/mL. In addition, in series [2], the survival result is “significantly prolongs and improves the survival”.
Consider `CC(=O)O[C@@]12CO[C@@H]1C[C@H](O)[C@@]1(C)C(=O)[C@H](O)C3=C(C)[C@@H](OC(=O)[C@H](O)[C@@H](NC(=O)OC(C)(C)C)c4ccccc4)C[C@@](O)([C@@H](OC(=O)c4ccccc4)[C@H]21)C3(C)C` [docetaxel], for which, in the series with patients with NSCLC, the survival entry is “improved survival”.
Consider `Nc1nc2[nH]cc(CCc3ccc(C(=O)N[C@@H](CCC(=O)O)C(=O)O)cc3)c2c(=O)[nH]1` [pemetrexed], for which, in the series on NSCLC, the “efficacy compared with docetaxel” value is reported as “clinically equivalent efficacy” and the “side effects compared with docetaxel” value is “significantly fewer side effects”.
